Tests used:
TNKS1 = target: T1, TNKS1 (Homo sapiens, UniProt O95271); assay: Modified TNKS1 Assay 2 (auto-parsylation, [3H]-NAD+ SPA); assay type: biochemical; details: 6 nM TNKS1, 96 well
T1 sequence (O95271 1-1327): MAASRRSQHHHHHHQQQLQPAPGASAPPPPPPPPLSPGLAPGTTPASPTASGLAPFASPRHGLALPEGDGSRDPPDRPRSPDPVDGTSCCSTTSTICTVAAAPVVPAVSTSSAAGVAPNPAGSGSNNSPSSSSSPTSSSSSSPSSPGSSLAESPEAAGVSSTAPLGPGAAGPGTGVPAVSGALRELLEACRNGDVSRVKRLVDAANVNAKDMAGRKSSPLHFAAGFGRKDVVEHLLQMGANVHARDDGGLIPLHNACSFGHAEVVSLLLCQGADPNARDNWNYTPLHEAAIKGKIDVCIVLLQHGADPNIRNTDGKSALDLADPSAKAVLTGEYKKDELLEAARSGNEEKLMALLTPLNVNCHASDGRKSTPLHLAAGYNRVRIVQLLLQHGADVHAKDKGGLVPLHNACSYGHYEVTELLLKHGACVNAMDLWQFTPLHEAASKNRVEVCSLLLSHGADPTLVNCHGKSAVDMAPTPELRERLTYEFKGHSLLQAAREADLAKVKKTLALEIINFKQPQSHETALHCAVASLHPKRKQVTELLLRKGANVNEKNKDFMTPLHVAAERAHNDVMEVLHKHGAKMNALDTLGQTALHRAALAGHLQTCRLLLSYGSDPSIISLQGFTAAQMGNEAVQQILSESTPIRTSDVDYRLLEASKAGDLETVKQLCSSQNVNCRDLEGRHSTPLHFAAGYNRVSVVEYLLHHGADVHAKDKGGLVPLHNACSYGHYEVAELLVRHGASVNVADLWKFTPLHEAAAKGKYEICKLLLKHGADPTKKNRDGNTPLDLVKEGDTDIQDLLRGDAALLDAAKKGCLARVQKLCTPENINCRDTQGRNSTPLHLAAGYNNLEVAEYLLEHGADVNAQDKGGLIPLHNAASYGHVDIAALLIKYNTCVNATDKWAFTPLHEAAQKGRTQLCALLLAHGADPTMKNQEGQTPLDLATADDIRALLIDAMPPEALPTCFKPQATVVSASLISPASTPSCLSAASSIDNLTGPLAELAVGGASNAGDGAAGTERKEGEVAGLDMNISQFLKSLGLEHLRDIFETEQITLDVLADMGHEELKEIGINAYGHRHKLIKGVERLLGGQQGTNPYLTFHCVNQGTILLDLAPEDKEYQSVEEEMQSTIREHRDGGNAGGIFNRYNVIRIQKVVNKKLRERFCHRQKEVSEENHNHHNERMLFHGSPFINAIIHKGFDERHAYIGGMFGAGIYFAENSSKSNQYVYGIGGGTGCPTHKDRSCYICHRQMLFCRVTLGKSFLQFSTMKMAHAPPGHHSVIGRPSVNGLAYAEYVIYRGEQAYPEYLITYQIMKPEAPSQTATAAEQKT

[1] = system: HEK293 FOP control reporter cell line; assay: HEK293 FOP Assay (FOP control vector luciferase reporter); assay type: cell-based; details: Homo sapiens
How it was run: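 Stable HEK293 line carrying the FOP vector (randomized, non-functional TCF sites; Geneticin-selected) was run in parallel with the TOP line. Cells were plated 24 h ahead at 10000/well and given recombinant human Wnt-3a at 2500–5 ng/ml. Compounds were tested at 50 μM–15 nM (3.16-fold steps) in CAFTY buffer, pH 7.4, with 2 mM Ca2+ and 0.01% BSA.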

[2] = HEK293 FOP control reporter cell line, 16 hours incubation, compound dilution series 50 μM to 15 nM
[3] = HEK293 FOP control reporter cells, 16 hours, luciferase, dilution series from 50 μM

| SMILES | IC50 (TNKS1) [nM] | IC50 [1, 2] [µM] | IC50 [1, 3] [µM] |
| --- | --- | --- | --- |
| CN(C)CCNC(=O)c1nc[nH]c1C(=O)Nc1ccc(NC(=O)c2ccc(F)cc2Cl)c(F)c1 [Example 73, N^5-{4-[(2-chloro-4-fluorobenzoyl)amino]-3-fluorophenyl}-N^4-[2-(dimethylamino)ethyl]-1H-imidazole-4,5-dicarboxamide] | 10 | 33 | – |
| Cc1nc(C(=O)Nc2ccc(NC(=O)c3ccc(F)cc3Cl)cc2)c(C(=O)NCCN(C)C)[nH]1 [Example 66, N^4-{4-[(2-chloro-4-fluorobenzoyl)amino]phenyl}-N^5-[2-(dimethylamino)ethyl]-2-methyl-1H-imidazole-4,5-dicarboxamide] | 20 | 6.2 | – |
| CN1CCCC(CNC(=O)c2[nH]cnc2C(=O)Nc2ccc(NC(=O)c3ccc(F)cc3Cl)cc2)C1 (stereo not drawn) [Example 298, N^4-{4-[(2-chloro-4-fluorobenzoyl)amino]phenyl}-N^5-[(1-methylpiperidin-3-yl)methyl]-1H-imidazole-4,5-dicarboxamide] | 40 | 17 | – |
| O=C(Nc1ccc(NC(=O)c2[nH]cnc2C(=O)NCCN2CCCCC2)cc1)c1ccc(F)cc1I [Example 62, N^5-{4-[(4-fluoro-2-iodobenzoyl)amino]phenyl}-N^4-[2-(piperidin-1-yl)ethyl]-1H-imidazole-4,5-dicarboxamide] | 840 | 24 | – |
| C[C@@H]1CCCN(CCNC(=O)c2[nH]cnc2C(=O)Nc2ccc(NC(=O)c3ccc(F)cc3Cl)cc2)C1 [Example 278, N^4-{4-[(2-chloro-4-fluorobenzoyl)amino]phenyl}-N^5-{2-[(3R)-3-methylpiperidin-1-yl]ethyl}-1H-imidazole-4,5-dicarboxamide] | 5 | 25 | – |
| CCNC(=O)c1nc[nH]c1C(=O)Nc1ccc(NC(=O)c2cnccc2Cl)cc1 [Example 263, N^5-(4-{[(4-chloropyridin-3-yl)carbonyl]amino}phenyl)-N^4-ethyl-1H-imidazole-4,5-dicarboxamide] | 300 | 27.5 | – |
| O=C(Nc1ccc(NC(=O)c2ocnc2C(=O)NCCN2CCCCC2)cc1)c1ccc(F)cc1Cl [Example 303, N^5-{4-[(2-chloro-4-fluorobenzoyl)amino]phenyl}-N^4-[2-(piperidin-1-yl)ethyl]-1,3-oxazole-4,5-dicarboxamide] | 8 | 8.1 | – |
| CCNC(=O)c1nc[nH]c1C(=O)Nc1ccc(NC(=O)c2cc(OC)ccc2Cl)cc1 [Example 264, N^5-{4-[(2-chloro-5-methoxybenzoyl)amino]phenyl}-N^4-ethyl-1H-imidazole-4,5-dicarboxamide] | 90 | 16 | – |
| CNC(=O)c1nc[nH]c1C(=O)Nc1ccc(NC(=O)c2cc(Cl)ccc2Cl)cc1 [Example 309, N^5-{4-[(2,5-dichlorobenzoyl)amino]phenyl}-N^4-methyl-1H-imidazole-4,5-dicarboxamide] | 410 | 38 | – |
| CNC(=O)c1nc[nH]c1C(=O)Nc1ccc(NC(=O)c2c(Cl)cccc2C(F)(F)F)cc1 [Example 36, N^5-(4-{[2-chloro-6-(trifluoromethyl)benzoyl]amino}phenyl)-N^4-methyl-1H-imidazole-4,5-dicarboxamide] | > 10000 | – | ≥ 50 |
| CCc1ccccc1C(=O)Nc1ccc(NC(=O)c2[nH]cnc2C(=O)NC)cc1 [Example 39, N^5-{4-[(2-ethylbenzoyl)amino]phenyl}-N^4-methyl-1H-imidazole-4,5-dicarboxamide] | 2700 | 5.5 | 5.5 |
| O=C(Nc1ccc(NC(=O)c2[nH]cnc2C(=O)N2CCOCC2)cc1)c1ccc(F)cc1Cl [Example 29, N-{4-[(2-chloro-4-fluorobenzoyl)amino]phenyl}-5-(morpholin-4-ylcarbonyl)-1H-imidazole-4-carboxamide] | 2100 | – | ≥ 50 |
| C[C@@H]1CCCCN1CCNC(=O)c1[nH]cnc1C(=O)Nc1ccc(NC(=O)c2ccc(F)cc2Cl)cc1 [Example 267, N^4-{4-[(2-chloro-4-fluorobenzoyl)amino]phenyl}-N^5-{2-[(2R)-2-methylpiperidin-1-yl]ethyl}-1H-imidazole-4,5-dicarboxamide] | 7 | 20 | – |
| CN1CCN(CC(C)(C)CNC(=O)c2nc[nH]c2C(=O)Nc2ccc(NC(=O)c3ccc(F)cc3Cl)cc2)CC1 [Example 415, N^5-{4-[(2-chloro-4-fluorobenzoyl)amino]phenyl}-N^4-[2,2-dimethyl-3-(4-methylpiperazin-1-yl)propyl]-1H-imidazole-4,5-dicarboxamide] | 70 | 7.8 | – |
| CNC(=O)c1nc[nH]c1C(=O)Nc1ccc(NC(=O)c2ccccc2)cc1 [Example 21, N^5-[4-(benzoylamino)phenyl]-N^4-methyl-1H-imidazole-4,5-dicarboxamide] | > 10000 | 35 | 35 |
| CN1CC2(C1)CN(C(=O)c1nc[nH]c1C(=O)Nc1ccc(NC(=O)c3ccc(F)cc3Cl)cc1)C2 [Example 46, N-{4-[(2-chloro-4-fluorobenzoyl)amino]phenyl}-4-[(6-methyl-2,6-diazaspiro[3.3]hept-2-yl)carbonyl]-1H-imidazole-5-carboxamide] | 680 | 12 | – |
| CNC(=O)c1nc[nH]c1C(=O)Nc1ccc(NC(=O)c2ccc(F)cc2Br)cc1 [Example 56, N^5-{4-[(2-bromo-4-fluorobenzoyl)amino]phenyl}-N^4-methyl-1H-imidazole-4,5-dicarboxamide] | 530 | 10 | – |
| CC1(C)CC(NC(=O)c2nc[nH]c2C(=O)Nc2ccc(NC(=O)c3ccc(F)cc3Cl)cc2)CCO1 (stereo not drawn) [Example 391, N^5-{4-[(2-chloro-4-fluorobenzoyl)amino]phenyl}-N^4-(2,2-dimethyltetrahydro-2H-pyran-4-yl)-1H-imidazole-4,5-dicarboxamide] | 400 | 27 | – |
| O=C(Nc1ccc(NC(=O)c2nc[nH]c2C(=O)NCCN2CCC(F)(F)C2)cc1)c1ccc(F)cc1Cl [Example 279, N^4-{4-[(2-chloro-4-fluorobenzoyl)amino]phenyl}-N^5-[2-(3,3-difluoropyrrolidin-1-yl)ethyl]-1H-imidazole-4,5-dicarboxamide] | 20 | 12 | – |
| CNC(=O)c1nc[nH]c1C(=O)Nc1ccc(NC(=O)c2ccccc2OC)cc1 [Example 60, N^5-{4-[(2-methoxybenzoyl)amino]phenyl}-N^4-methyl-1H-imidazole-4,5-dicarboxamide] | > 10000 | 9.75 | – |
| CCN1CCC[C@@H]1CNC(=O)c1nc[nH]c1C(=O)Nc1ccc(NC(=O)c2ccc(F)cc2Cl)cc1 [Example 413, N^5-{4-[(2-chloro-4-fluorobenzoyl)amino]phenyl}-N^4-{[(2R)-1-ethylpyrrolidin-2-yl]methyl}-1H-imidazole-4,5-dicarboxamide] | 80 | 26 | – |
| CNC(=O)c1nc[nH]c1C(=O)Nc1ccc(NC(=O)c2cc(Br)ccc2Cl)cc1 [Example 313, N^5-{4-[(5-bromo-2-chlorobenzoyl)amino]phenyl}-N^4-methyl-1H-imidazole-4,5-dicarboxamide] | 420 | 25 | – |
| CC(C)N(CCNC(=O)c1nc[nH]c1C(=O)Nc1ccc(NC(=O)c2ccc(F)cc2Cl)cc1)C(C)C [Example 389, N^5-{4-[(2-chloro-4-fluorobenzoyl)amino]phenyl}-N^4-{2-[di(propan-2-yl)amino]ethyl}-1H-imidazole-4,5-dicarboxamide] | 150 | 11 | – |

Source: US9884063B2, “Amido-substituted azole compounds” (Bayer Pharma Aktiengesellschaft, priority 2014, dated 2018)
